Calls of active or inactive are those of the source. The rule behind the calls is not given here.
Legend:
[1] = Inhibition of EGFR L858R/T790M double mutant (unknown origin); design: species or system Homo sapiens
[2] = target: Receptor tyrosine-protein kinase erbB-2 (Homo sapiens, UniProt P04626); assay: Inhibition of HER2 (unknown origin)
[3] = Inhibition of HER2-A775-G776 ins YVMA mutant (unknown origin); design: species or system Homo sapiens
[4] = tested on: BaF3; assay: Antiproliferative activity against mouse BAF3 cells harboring FL-EGFR D770-N771 ins NPG mutant after 72 hrs by celltiter-Glo luminescence assay; assay type: functional, cell-based; conditions: BaF3, 72 h
[5] = tested on: BaF3; assay: Inhibition of EGFR D770-N771 ins NPG mutant in mouse BaF3 cells assessed as reduction in EGFR phosphorylation at less than 1 nM incubated for 24 hrs by Western blot analysis; assay type: cell-based
[6] = target: Voltage-gated inwardly rectifying potassium channel KCNH2 (Homo sapiens, UniProt Q12809); assay: Binding affinity to human ERG; assay type: toxicity
[7] = target: T1, Ephrin type-A receptor 6 (Homo sapiens) (UniProt Q9UF33); assay: Inhibition of EPHA6 (unknown origin) at 500 nM relative to control
T1 sequence (whole entry): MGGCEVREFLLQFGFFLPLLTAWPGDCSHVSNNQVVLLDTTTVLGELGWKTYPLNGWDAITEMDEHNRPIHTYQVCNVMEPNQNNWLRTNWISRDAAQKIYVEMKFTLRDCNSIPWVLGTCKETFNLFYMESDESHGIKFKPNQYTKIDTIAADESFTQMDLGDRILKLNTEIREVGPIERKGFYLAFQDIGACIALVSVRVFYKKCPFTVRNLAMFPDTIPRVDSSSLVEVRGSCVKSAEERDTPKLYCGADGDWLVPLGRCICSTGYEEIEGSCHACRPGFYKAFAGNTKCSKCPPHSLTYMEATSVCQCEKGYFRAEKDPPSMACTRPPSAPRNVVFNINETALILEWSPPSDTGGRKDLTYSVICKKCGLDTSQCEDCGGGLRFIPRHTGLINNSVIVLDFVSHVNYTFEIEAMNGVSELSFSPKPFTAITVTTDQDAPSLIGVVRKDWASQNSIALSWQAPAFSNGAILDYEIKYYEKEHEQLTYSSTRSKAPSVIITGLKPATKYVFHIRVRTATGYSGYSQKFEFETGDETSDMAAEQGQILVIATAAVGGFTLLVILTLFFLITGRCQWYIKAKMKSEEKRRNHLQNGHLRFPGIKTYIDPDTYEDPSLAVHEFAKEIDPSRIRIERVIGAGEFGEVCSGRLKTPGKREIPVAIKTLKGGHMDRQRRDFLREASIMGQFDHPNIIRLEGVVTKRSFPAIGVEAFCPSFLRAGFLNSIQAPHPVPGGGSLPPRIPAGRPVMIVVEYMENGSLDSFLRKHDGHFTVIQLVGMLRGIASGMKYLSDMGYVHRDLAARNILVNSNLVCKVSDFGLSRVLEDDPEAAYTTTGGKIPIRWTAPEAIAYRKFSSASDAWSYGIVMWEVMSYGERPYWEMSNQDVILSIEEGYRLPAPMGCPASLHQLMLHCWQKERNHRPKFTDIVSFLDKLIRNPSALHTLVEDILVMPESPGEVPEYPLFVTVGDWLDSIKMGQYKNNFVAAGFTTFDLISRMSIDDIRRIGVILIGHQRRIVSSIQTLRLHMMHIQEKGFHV

[8] = target: T2, Ephrin type-A receptor 3 (Homo sapiens) (UniProt P29320); assay: Inhibition of EPHA3 (unknown origin) at 500 nM relative to control
T2 sequence (whole entry): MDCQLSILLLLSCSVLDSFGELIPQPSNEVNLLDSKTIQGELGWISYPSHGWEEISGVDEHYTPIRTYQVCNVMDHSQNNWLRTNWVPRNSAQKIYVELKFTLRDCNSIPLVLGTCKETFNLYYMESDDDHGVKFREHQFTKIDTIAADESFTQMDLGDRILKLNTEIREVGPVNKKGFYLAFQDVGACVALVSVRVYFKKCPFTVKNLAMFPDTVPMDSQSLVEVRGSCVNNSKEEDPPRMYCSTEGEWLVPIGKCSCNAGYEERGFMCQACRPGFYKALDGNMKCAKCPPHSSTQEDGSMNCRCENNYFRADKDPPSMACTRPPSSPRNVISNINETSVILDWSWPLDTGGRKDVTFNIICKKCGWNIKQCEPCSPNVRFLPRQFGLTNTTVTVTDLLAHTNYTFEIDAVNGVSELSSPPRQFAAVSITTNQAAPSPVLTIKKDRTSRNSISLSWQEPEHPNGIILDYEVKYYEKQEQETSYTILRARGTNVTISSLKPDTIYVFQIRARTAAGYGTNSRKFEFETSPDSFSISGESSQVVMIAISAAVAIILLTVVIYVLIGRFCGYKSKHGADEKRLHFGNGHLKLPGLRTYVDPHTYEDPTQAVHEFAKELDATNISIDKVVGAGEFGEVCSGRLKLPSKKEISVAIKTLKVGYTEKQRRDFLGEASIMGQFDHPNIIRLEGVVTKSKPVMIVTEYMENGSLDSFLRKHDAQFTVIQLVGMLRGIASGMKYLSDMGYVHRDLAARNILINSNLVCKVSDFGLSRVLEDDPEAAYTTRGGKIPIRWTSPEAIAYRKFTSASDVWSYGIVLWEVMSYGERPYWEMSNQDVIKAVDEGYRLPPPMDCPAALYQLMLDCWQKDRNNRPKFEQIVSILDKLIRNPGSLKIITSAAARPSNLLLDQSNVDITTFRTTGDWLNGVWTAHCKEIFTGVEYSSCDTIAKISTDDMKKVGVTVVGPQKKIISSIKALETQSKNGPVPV

[9] = Cmax in Sprague-Dawley rat at 10 mg/kg, po measured upto 8 hrs by LC-MS/MS analysis; assay type: ADME, organism-based; design: dose 10 mg/kg, time < 8 hrs, route po; conditions: in vivo
[10] = Half life in Sprague-Dawley rat at 10 mg/kg, po measured upto 8 hrs by LC-MS/MS analysis; assay type: ADME, organism-based; conditions: in vivo
[11] = AUC(0 to t) in Sprague-Dawley rat at 10 mg/kg, po measured upto 8 hrs by LC-MS/MS analysis; assay type: ADME, organism-based; design: dose 10 mg/kg, time < 8 hrs, route po; conditions: in vivo
[12] = Oral bioavailability in Sprague-Dawley rat at 10 mg/kg measured upto 8 hrs by LC-MS/MS analysis; assay type: ADME, organism-based; conditions: in vivo
[13] = Cmax in Sprague-Dawley rat at 10 mg/kg, iv measured upto 8 hrs by LC-MS/MS analysis; assay type: ADME, organism-based; design: dose 10 mg/kg, time < 8 hrs, route iv; conditions: in vivo
[14] = tested on: BaF3; assay: Antitumor activity against mouse BaF3 cells implanted in BALB/c mouse harboring EGFR D770-N771 ins NPG mutant assessed as tumor growth inhibition at 10 mg/kg, po administered once daily for 13 to 14 days; assay type: functional; conditions: time 13-14 day, read-out: TGI
[15] = tested on: BaF3; assay: Antitumor activity against mouse BaF3 cells implanted in BALB/c mouse harboring HER2-A775-G776 ins YVMA mutant assessed as tumor growth inhibition at 20 mg/kg, po administered once daily for 13 to 14 days; assay type: functional; conditions: time 13-14 day, read-out: TGI
[16] = tested on: BaF3; assay: In vivo inhibition of EGFR D770-N771 ins NPG mutant in BALB/c mouse implanted with mouse BaF3 cells assessed as reduction in EGFR phosphorylation at 10 to 20 mg/kg, po administered once daily for 13 to 14 days by Western blot analysis; assay type: functional, organism-based; conditions: dose 10-20 mg/kg, time 13-14 day

Sequence of Voltage-gated inwardly rectifying potassium channel KCNH2 (Q12809 whole entry): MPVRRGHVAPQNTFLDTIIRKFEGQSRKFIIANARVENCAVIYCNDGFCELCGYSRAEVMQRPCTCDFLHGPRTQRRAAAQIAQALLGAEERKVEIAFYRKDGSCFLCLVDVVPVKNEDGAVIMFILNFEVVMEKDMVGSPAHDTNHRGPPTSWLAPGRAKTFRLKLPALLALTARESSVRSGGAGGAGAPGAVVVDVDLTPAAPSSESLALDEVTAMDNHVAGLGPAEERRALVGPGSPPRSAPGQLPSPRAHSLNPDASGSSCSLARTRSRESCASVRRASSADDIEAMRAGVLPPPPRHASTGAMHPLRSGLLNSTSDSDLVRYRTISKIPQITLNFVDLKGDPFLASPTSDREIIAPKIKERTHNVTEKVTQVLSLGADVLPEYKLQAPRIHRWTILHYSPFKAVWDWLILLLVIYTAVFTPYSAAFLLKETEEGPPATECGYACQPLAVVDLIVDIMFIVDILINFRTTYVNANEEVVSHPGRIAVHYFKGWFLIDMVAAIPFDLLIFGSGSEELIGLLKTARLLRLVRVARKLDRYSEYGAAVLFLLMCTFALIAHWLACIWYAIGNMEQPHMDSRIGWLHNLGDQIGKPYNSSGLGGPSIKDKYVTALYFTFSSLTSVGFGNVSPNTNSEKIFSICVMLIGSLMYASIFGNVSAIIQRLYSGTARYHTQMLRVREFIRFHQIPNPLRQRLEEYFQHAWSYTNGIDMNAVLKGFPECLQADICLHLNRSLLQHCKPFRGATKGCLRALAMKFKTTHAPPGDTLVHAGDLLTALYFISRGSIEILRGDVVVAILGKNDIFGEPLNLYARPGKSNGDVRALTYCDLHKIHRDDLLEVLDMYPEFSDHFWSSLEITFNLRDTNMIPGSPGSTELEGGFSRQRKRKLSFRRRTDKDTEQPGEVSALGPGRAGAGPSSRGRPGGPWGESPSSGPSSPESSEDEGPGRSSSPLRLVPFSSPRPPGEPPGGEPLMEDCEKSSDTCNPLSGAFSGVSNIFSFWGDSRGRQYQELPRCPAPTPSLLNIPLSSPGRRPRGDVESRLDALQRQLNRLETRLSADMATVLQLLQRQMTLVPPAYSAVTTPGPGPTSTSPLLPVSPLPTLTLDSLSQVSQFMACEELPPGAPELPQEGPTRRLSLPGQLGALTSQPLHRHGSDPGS
Sequence of Receptor tyrosine-protein kinase erbB-2 (P04626 whole entry): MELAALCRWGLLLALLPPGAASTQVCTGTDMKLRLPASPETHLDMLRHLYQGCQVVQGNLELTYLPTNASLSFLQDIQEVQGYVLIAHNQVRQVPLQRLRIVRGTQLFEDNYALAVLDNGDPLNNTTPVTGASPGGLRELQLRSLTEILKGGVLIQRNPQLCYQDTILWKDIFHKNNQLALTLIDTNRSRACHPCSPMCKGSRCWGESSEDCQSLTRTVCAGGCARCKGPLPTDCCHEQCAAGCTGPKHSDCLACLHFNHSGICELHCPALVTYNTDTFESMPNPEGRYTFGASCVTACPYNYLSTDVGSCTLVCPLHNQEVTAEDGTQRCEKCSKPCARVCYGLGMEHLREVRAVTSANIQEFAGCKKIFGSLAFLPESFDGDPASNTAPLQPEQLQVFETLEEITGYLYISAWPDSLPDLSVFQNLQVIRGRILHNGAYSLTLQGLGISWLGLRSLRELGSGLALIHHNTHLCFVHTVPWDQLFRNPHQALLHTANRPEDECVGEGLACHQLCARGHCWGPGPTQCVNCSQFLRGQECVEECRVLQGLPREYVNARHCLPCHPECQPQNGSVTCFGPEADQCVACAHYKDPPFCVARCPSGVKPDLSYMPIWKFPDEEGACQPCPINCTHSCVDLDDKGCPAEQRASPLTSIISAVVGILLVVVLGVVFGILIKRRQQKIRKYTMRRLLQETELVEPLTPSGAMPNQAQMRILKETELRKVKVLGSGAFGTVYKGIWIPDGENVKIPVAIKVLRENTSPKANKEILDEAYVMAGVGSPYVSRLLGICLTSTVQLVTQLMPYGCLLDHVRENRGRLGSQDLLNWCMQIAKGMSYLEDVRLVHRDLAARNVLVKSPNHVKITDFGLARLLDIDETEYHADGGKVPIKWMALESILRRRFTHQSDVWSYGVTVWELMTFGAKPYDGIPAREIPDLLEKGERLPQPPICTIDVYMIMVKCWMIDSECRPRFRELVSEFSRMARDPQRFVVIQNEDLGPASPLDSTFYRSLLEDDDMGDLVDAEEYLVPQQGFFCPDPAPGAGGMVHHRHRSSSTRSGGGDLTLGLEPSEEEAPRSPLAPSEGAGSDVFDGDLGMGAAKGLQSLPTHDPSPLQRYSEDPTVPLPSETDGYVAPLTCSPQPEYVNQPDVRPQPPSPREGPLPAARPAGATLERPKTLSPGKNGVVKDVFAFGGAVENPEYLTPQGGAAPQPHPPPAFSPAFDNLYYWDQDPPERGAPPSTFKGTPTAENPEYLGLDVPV

C=CC(=O)N1CCC(Oc2cc3c(Nc4cccc(Cl)c4F)ncnc3cc2O[C@H]2CCOC2)CC1
IC50 [1]: 1.07 nM
IC50 [2]: 1.42 nM
IC50 [3]: 0.92 nM
IC50 [4]: 0.79 nM
inhibition [5]: Active
IC50 [6]: > 15000 nM
inhibition [7]: > 20%
inhibition [8]: > 20%
Cmax [9]: 1690 ng/mL
half-life [10]: 6.93 h
AUC(0-t) at 8 h [11]: 9500 ng·h/mL
bioavailability [12]: 68%
Cmax [13]: 8270 ng/mL
inhibition in vivo at 10 mg/kg [14]: 67%
inhibition in vivo at 20 mg/kg [15]: 90%
inhibition [16]: Active
